In publication PMC9616048, “Thermal proteome profiling reveals Haemonchus orphan protein HCO_011565 as a target of the nematocidal small molecule UMW-868” (Frontiers in Pharmacology, 2022):

Legend:
H. contortus xL3s [1] = experiment: Cell lethality in xL3s (Sytox Green staining); assay type: cell-based, Haemonchus contortus
Description: Fluorescence staining was employed to assess the ability of UMW-868 to reduce the viability of H. contortus. The xL3s were dispensed in 96-well plates at a density of 300 xL3 per well, and incubated with compounds UMW-868 or A-3155, non-active analogs of UMW-868, at 50 μM at 38°C, 10% (v/v) CO2 and >90% relative humidity. After 90 h of incubation, H. contortus xL3s were stained with Sytox Green nucleic acid stain (Thermo Fisher Scientific) at the final concentration of 1 µM in LB* in the same 96-well plates and incubated for 1 h at 38°C and 10% (v/v) CO2 with >90% relative humidity. Following the incubation, the viability of larvae was evaluated by measuring the relative fluorescent units (RFU) of xL3s using an Omega FLUOstar microplate reader (BMG Labtech), with excitation and emission wavelengths set at 485 nm and 520 nm, respectively. The 96-well plates containing the stained larvae were returned to the incubator for further 78 h; after a total of 168 h of compound exposure, the stained larvae were examined under an inverted fluorescence microscope (DM IL, Leica) equipped with a green fluorescent protein filter (470/500/525 […]; Leica), and imaged using Leica Application Suite software (Leica).

[2] = test system: Caenorhabditis elegans young adults; experiment: In vitro activity on C. elegans; assay type: cell-based
H. contortus xL3s [3] = experiment: Dose-response evaluation, xL3 motility; assay type: cell-based; conditions: Haemonchus contortus
Description: These evaluations were carried out to estimate the half-maximal inhibitory concentrations (IC50 values) for hit compounds against H. contortus xL3s. With reference to the two positive-control compounds (monepantel and moxidectin), IC50 values for compounds were estimated ([Preston et al., 2015]; [Taki et al., 2021a]) using two-fold serial dilution (in LB*; 9 points from 50 μM to 0.2 µM) in 96-well plates (cat. no. 3596; Corning) with larvae at a density of 300 H. contortus xL3s in 100 µl per well. Plates containing H. contortus xL3s were incubated at 38°C, 10% (v/v) CO2 and >90% relative humidity.
Compound concentrations were log10-transformed and fitted using a variable slope four-parameter equation, constraining the highest value to 100% employing a least squares (ordinary) fit model using GraphPad Prism software (v.9.1.2). Compounds were tested by three independent experiments in triplicate. A one-way analysis of variance (ANOVA) with a Tukey’s multiple comparison test or an unpaired t-test was used to establish statistically significant differences in larval motility or development.

[4] = test system: A. ceylanicum in hamsters; experiment: In vivo activity against A. ceylanicum in hamsters; design: species or system Ancylostoma ceylanicum
Description: Candidate compound(s) were tested for their effect on other nematode species (He. polygyrus and A. ceylanicum) in infected rodents.
For He. polygyrus, four NMRI mice (3 weeks old; female) were infected orally with 88 He. polygyrus L3s, and immunosuppressed with 0.25 mg/ml dexamethasone (Sigma-Aldrich), in the drinking water, until 2 days prior to treatment ([Mes et al., 2007]). For A. ceylanicum, four Syrian golden hamsters (3 weeks old; male) were infected orally with 300 L3s without immunosuppression ([Tritten et al., 2012]). Fourteen days or 23 days after the infection, mice and hamsters, respectively, were treated orally with UMW-868 at dosages of 100 mg/kg bw (mice and hamsters). Four each of untreated mice and hamsters served as placebo controls. Six to 7 days post-treatment with the compound, all animals were euthanised by CO2 (hamsters being initially narcotised using isoflurane), and the intestine was dissected. The live adult worms were collected and counted to calculate the worm burden reductions and worm expulsion rates. The worm burden reduction was calculated using the mean number of live worms for the treated group and establishing the differences, in a percentage, with reference to the untreated control group.

[5] = hamster, A. ceylanicum, 100 mg/kg single oral dose

CCCc1ccc(-c2nc(-c3cccs3)no2)cc1 [UMW-868, 5-(4-propylphenyl)-3-(2-thienyl)-1,2,4-oxadiazole]
percentage of treated xL3s killed (H. contortus xL3s [1]; 50 μM, 90 h): 100%
concentration at which cell death was detected in xL3s (H. contortus xL3s [1]; 90 h of exposure): > 5 µM
dead cells detected microscopically in xL3s (Sytox Green) (H. contortus xL3s [1]; 168 h of exposure): dead cells could be seen throughout the larvae
IC50 (H. contortus xL3s [1]; Haemonchus contortus, 90 h, read-out: IC50 (lethality, inducing cell death in xL3s)): 34.8 µM
motility reduction of C. elegans ([2]; 10 µM, at 40 h): 53.5%
IC50 ([2]; Caenorhabditis elegans, read-out: IC50 (C. elegans motility)): 9.9 µM
IC50 (H. contortus xL3s [3]; 90 h, xL3s, 90 h, read-out: IC50 (motility)): 5.6 µM
IC50 (H. contortus xL3s [3]; 168 h, analog series, read-out: xL3 motility reduction (IC50 in µM)): 13.8 µM
Mean no. of worms (SD) [4, 5]: 4.8 (1.0)
Reduction in infection intensity (%) [4, 5]: 48%
acute toxicity and pathological changes in treated animals ([4]; hamsters, single oral dose, post-mortem examination): neither evidence of acute toxicity
